Reference: EP1038516A1, “Cosmetic composition comprising kynurenine” (Uchikuga, Saburoh, priority 1999, dated 2000)
Values joined by “and” are separate entries in the source; they are usually repeats but may differ in a detail not shown here. Equal entries are not always repeated.

Assays:
[1] = Ultraviolet absorption (maximum absorption wavelength and molecular extinction coefficient); format: physicochemical; details: for Maximum absorption wavelength (λmax): UV-A region (320 to 380 nm); for Molecular extinction coefficient (ε): at λmax in the UV-A region
Text: The properties of kynurenine and the derivative thereof are collectively shown below in Table 1, along with the properties of "Palsole A". As apparently shown in the table and Fig. 1, the maximum absorption lengths (λmax) of kynurenine and the derivative thereof preferably reside in 360 to 365 nm in the UV-A region (320 to 380 nm) with the highest risk of direct darkening of skin. Kynurenine has a molecular extinction coefficient (ε) functioning as a marker of the intensity of ultraviolet absorption (ε = 4,000), which is about 1/10 of the commercially available Palsole A (ε = 36,000). […] Accordingly, such large quantity considered abnormal is required to be blended. Table 1 In addition to the UV-A region, kynurenine and the derivative thereof have the maximum absorption wavelength at 253 nm with the molecular extinction coefficient of 6,700. In other words, kynurenine and the derivative thereof exert absorption in the UV-C region ([…]). The ultraviolet ray in the UV-C region is generally absorbed in the ozone layer and therefore never reaches ground surface, so the absorption in the region is not meaningful as cosmetics. Kynurenine and the derivative thereof never exert absorption in the UV-B region (290 to 320 nm) in the erythema curve region with the highest risk in sunlight. Thus, an effect on the prevention of erythema against ultraviolet ray in the UV-B region cannot be expected.

tyrosinase [2] = assay: Test Example 1: disappearance of kynurenine / 3-hydroxykynurenine and pigment generation with tyrosinase and dopa or tyrosine; format: biochemical; details: 3.5 hours; for disappearance of kynurenine or 3-hydroxykynurenine: assayed at 355 nm
Procedure: 5 units of tyrosinase, 2.5 µmol of dopa or tyrosine, and 1 mg of kynurenine sulfate salt or 3-hydroxykynurenine dihydrate were dissolved in 0.1M phosphate buffer, pH 7.0 to a final volume of 5 ml and the resulting solution was agitated at ambient temperature for 3.5 hours; thereafter, the disappearance of kynurenine or 3-hydroxykynurenine was assayed at 355 nm, which corresponds to the λmax of kynurenine and 3-hydroxykynurenine in UV-A. The contents of the individual tests are shown below in Table 2. Table 2 [table]

tyrosinase [3] = assay: Tyrosinase activity-inhibiting effect; format: biochemical
Text: It was expectantly assumed that kynurenine and the derivative thereof inhibited tyrosinase and thereby suppressed the generation of black melanin so that kynurenine and the derivative thereof could be utilized as an ingredient for preventing spot and freckle and the deposition of pigments.

5 bacterial strains = assay: Ames test (mutagenicity); format: cell-based
Text: The kynurenine represented by the general formula I and substances relating thereto are metabolic intermediates of tryptophan and are essentially present in biological organisms; and the kynurenine and substances relating thereto are contained at particularly large quantities in the eyes of human new born babies and infants but are decreased over aging [J. Biochem., Vol. 89, 103 (1981)], and have therefore no safety problem.
The generated brown pigment is present in the eye, skin and wing of Arthropoda and Mollusca. The brown pigment is also contained in human eye. Because the brown pigment is widely distributed in animals in such manner, the generated pigment is greatly safe. The brown pigment (xanthommatin) was chemically synthesized according to the method in Angew. Chem., 69, Jahrg. 16 (1957) and subjected to Ames test.

[4] = Tests 1 and 2: tyrosinase +, dopa/tyrosine +, air +, pH 7.0, ambient temperature

Maximum absorption wavelength (λmax) [1] [nm] | pigment generation (tyrosinase [2]; [4]) | disappearance of kynurenine or 3-hydroxykynurenine (tyrosinase [2]; [4]) | molecular extinction coefficient (ε) relative to Palsole A ([1]; UV-A region) | Molecular extinction coefficient (ε) [1] | disappearance of kynurenine or 3-hydroxykynurenine (tyrosinase [2]; Test 5: tyrosinase +, dopa/tyrosine +, no air) | SMILES | disappearance of kynurenine or 3-hydroxykynurenine (tyrosinase [2]; Test 3: tyrosinase with thermal treatment, dopa/tyrosine +, air +) | disappearance of kynurenine or 3-hydroxykynurenine (tyrosinase [2]; Test 4: tyrosinase +, no dopa/tyrosine, air +) | tyrosinase-inhibiting ability (tyrosinase [3]) | mutagenicity (5 bacterial strains)
355 | pigment generated | disappeared | – | – | – | Nc1c(O)cccc1C(=O)CC(N)C(=O)O (stereo not drawn) [3-hydroxykynurenine] | no disappearance of 3-hydroxykynurenine observed. | no disappearance of 3-hydroxykynurenine observed. | – | –
355 | pigment generated | disappeared | about 1/10 | 4,000 | no disappearance of kynurenine observed. | Nc1ccccc1C(=O)CC(N)C(=O)O (stereo not drawn) [kynurenine] | – | – | never has any ability of tyrosinase inhibition or has the ability insufficiently | –
355 | – | – | – | 36,000 and 35,000 | – | COc1ccc(C(=O)CC(=O)c2ccc(C(C)(C)C)cc2)cc1 [Palsole A, reference compound] | – | – | – | –
– | – | – | – | – | – | NC(CC(=O)c1cccc2oc3cc(=O)c4[nH]c(C(=O)O)cc(=O)c4c-3nc12)C(=O)O (stereo not drawn) [xanthommatin] | – | – | – | No mutagenicity was observed
